Results reported in patent publication US20030055065A1, “Tricyclic amide and urea compounds useful for inhibition of G-protein function and for treatment of proliferative diseases” (priority 1993, published 2003).
Values joined by “and” are separate entries in the source; they are usually repeats but may differ in a detail not shown here. Identical values can stand only once. Like-named read-outs stand apart in the source and are kept apart here.

Key:
[1] = target: T1, farnesyl protein transferase (FPT), partially purified from rat brain (Rattus norvegicus, UniProt Q02293+Q04631); assay: Inhibition of farnesyl protein transferase (transfer of [3H]farnesyl to Ras-CVLS); assay type: biochemical; conditions: for IC50: read-out: FPT IC50
T1 construct: were partially purified from rat brain by ammonium sulfate fractionation followed by Q-Sepharose
T1 sequence (Q02293 whole entry, one chain of several): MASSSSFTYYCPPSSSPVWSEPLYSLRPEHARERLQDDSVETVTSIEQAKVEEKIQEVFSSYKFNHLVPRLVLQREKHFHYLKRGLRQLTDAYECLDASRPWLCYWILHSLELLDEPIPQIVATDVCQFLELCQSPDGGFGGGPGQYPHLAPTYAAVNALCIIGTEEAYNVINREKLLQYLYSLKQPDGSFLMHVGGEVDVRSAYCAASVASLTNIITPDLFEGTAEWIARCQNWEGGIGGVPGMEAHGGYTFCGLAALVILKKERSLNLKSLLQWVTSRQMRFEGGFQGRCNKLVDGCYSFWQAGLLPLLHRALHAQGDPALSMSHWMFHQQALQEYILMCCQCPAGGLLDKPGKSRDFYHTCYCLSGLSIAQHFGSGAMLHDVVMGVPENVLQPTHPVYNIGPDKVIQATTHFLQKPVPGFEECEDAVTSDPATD
Summary of the method: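 Transfer of [3H]farnesyl onto E. coli-expressed, His6-tagged Ras-CVLS was measured after 30 min at room temperature. Radiolabelled Ras was TCA-precipitated on ice and filter-harvested, and inhibition was expressed as percent of DMSO control.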

[2] = target: T2, geranylgeranyl protein transferase (GGPT) I (Rattus norvegicus, UniProt P53610+Q04631); assay: Inhibition of geranylgeranyl protein transferase I (Ras-CVLL as acceptor); assay type: biochemical; conditions: for IC50: enzyme inhibition
T2 construct: were partially purified from rat brain by ammonium sulfate fractionation followed by Q-Sepharose
T2 sequence (P53610 whole entry, one chain of several): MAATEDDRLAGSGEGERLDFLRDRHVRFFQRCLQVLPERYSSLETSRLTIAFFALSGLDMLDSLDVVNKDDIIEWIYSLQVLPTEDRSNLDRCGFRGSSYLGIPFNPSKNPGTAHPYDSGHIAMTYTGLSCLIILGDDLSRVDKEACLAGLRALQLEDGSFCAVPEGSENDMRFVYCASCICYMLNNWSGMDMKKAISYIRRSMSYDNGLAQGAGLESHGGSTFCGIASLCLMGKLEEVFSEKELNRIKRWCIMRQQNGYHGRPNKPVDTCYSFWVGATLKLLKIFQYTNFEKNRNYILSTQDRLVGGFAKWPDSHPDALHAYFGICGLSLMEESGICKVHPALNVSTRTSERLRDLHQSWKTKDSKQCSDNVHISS
Text: 1. In vitro enzyme assays: Inhibition of farnesyl protein transferase and geranylgeranyl protein transferase.
Both farnesyl protein transferase (FPT) and geranylgeranyl protein transferase (GGPT) I were partially purified from rat brain by ammonium sulfate fractionation followed by Q-Sepharose (Pharmacia, Inc.) anion exchange chromatography essentially as described by Yokoyama et al (Yokoyama, K., et al., (1991), A protein geranylgeranyltransferase from bovine brain: Implications for protein prenylation specificity, Proc. Natl. Acad. Sci USA 88: 5302-5306, the disclosure of which is incorporated herein by reference thereto). Human farnesyl protein transferase was also expressed in E. coli, using cDNA clones encoding both the α and β subunits. The methods used were similar to those published (Omer, C. et al., (1993), Characterization of recombinant human farnesyl protein transferase: Cloning, expression, farnesyl diphosphate binding, and functional homology with yeast prenyl-protein transferases, Biochemistry 32:5167-5176). Human farnesyl protein transferase was partially-purified from the soluble protein fraction of E. coli as described above. […] Two forms of val^12-Ha-Ras protein were prepared as substrates for these enzymes, differing in their carboxy terminal sequence. One form terminated in cysteine-valine-leucine-serine (Ras-CVLS) the other in cystein-valine-leucine-leucine (Ras-CVLL). Ras-CVLS is a substrate for the farnesyl protein transferase while Ras-CVLL is a substrate for geranylgeranyl protein transferase I. The cDNAs encoding these proteins were constructed so that the proteins contain an amino-terminal extension of 6 histidine residues. Both proteins were expressed in Escherichia coli and purified using metal chelate affinity chromatography. The radiolabelled isoprenyl pyrophosphate substrates, [^3H]farnesyl pyrophosphate and [3H]geranylgeranyl pyrophosphate, were purchased from DuPont/New England Nuclear.
The geranylgeranyl protein transferase I assay was essentially identical to the farnesyl protein transferase assay described above, with two exceptions: [^3H]geranylgeranylpyrophosphate replaced farnesyl pyrophosphate as the isoprenoid donor and Ras-CVLL was the protein acceptor.

[3] = system: Ras-CVLS processing in COS monkey kidney cells; assay: COS cell assay: Ras-CVLS processing (Western blot); assay type: cell-based; conditions: COS cells; for IC50: read-out: Inhibition of Ras Processing IC50
Summary of the method: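 COS cells electroporated with Ras-CVLS (farnesyl transferase substrate) cDNA, with drug-containing fresh medium added at 24 h and cells examined at 48 h. TCA-precipitated cellular protein was resolved by SDS gel and immunoblotted with anti-p21 Ras monoclonal and HRP anti-rat IgG to monitor Ras processing.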

[4] = system: T24-BAG4 human bladder carcinoma cells expressing an activated H-ras gene; assay: Cell Mat Assay: tumor cell colony inhibition (tIC50); assay type: cell-based; conditions: inhibition of tumor cell growth
Summary of the method: (§1)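 Serial compound dilutions added 24 h after planting T24-BAG4 cells onto a mat of normal cells, then 14 d colony growth; monolayers glutaraldehyde-fixed and tumor cells X-Gal stained. tIC50 and mIC50 from microscope counts of colonies, cells per colony and mat cell density.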

[5] = system: Normal human HEPM fibroblasts; assay: Cell Mat Assay: density of mat cells (mIC50); assay type: cell-based
Summary of the method: as §1

[6] = Ras-CVLS farnesylation, partially purified rat brain FPT

| melting point | IC50 [1, 6] | IC50 [2] [µM] | IC50 ([4]; Homo sapiens) [µM] | Compound | IC50 ([3]; Primates, COS) [µM] | IC50 ([5]; Homo sapiens, Fibroblast) [µM] | other results |
| --- | --- | --- | --- | --- | --- | --- | --- |
| 125.6 °C (dec.) |  |  |  | O=C(Nc1ccccc1)N1CCC(=C2c3ccc(Cl)cc3CCc3c2ncc(Br)c3Cl)CC1 [Example 414] |  |  | IC50 ([1]; enzyme inhibition): 0.9 µM |
|  | 1.44 µM and 1.4 µM | > 40 | 12.5 | CC(C)(C(=O)N1CCC(=C2c3ccc(Cl)cc3CCc3cccnc32)CC1)c1ccccc1 [Example 289] | > 10 | > 50 | IC50 [4]: 18 µM |
| 206.4 to 207 °C |  |  |  | O=C(Nc1ccncc1)N1CCC(=C2c3ccc(Cl)cc3CCc3cc(Cl)ccc32)CC1 [Example 423] |  |  | FPT inhibition at the concentration in parentheses ([1]; (4.3) μM): 35 (4.3); IC50 ([1]; enzyme inhibition): > 4.3 µM |
|  | 0.83 µM | > 46 | 4 | O=C(Nc1ccncc1)N1CCC(C2c3ccc(Cl)cc3CCc3cccnc32)CC1 (stereo not drawn) [Example 314] | 3 | > 50 |  |
|  | 4.58 µM | > 35 | > 50 | O=C(OC(C(=O)N1CCC(=C2c3ccc(Cl)cc3CCc3cccnc32)CC1)c1ccccc1)c1ccncc1 (stereo not drawn) [Example 298] | > 9 | > 50 |  |
| 111.3 to 112.2 °C | 0.57 µM |  |  | O=C(Cc1ccncc1)N1CCC(=C2c3ccc(Cl)cc3CCc3cc([N+](=O)[O-])cnc32)CC1 [Example 358] |  |  |  |
|  | 1.26 µM | > 43 | 25 | CC(C)(C(=O)N1CCC(C2c3ccc(Cl)cc3CCc3cccnc32)CC1)c1ccccc1 (stereo not drawn) [Example 316] | 18.4 | > 50 |  |
|  | 1.76 µM and 0.47 µM | > 40 | 12.5 | O=C(Nc1ccccc1)N1CCC(=C2c3ccc(Cl)cc3CCc3cccnc32)CC1 [Example 293] | > 11.1 | > 50 | IC50 [3]: 6.5 µM |
| 132.8 to 133.7 °C |  |  |  | O=C(Nc1ccc2c(c1)CCc1cccnc1C2=C1CCN(C(=O)Cc2ccncc2)CC1)OCc1ccccc1 [Example 437] |  |  | FPT inhibition at the concentration in parentheses ([1]; (11) μM): 36 (11) |
|  | 0.21 µM | > 38 | 4 | O=C(Cc1ccc[n+]([O-])c1)N1CCC(C2c3ccc(Cl)cc3C=Cc3cc(Br)cnc32)CC1 (stereo not drawn) [Example 400-D] | 2 | > 25 | IC50 ([1]; enzyme inhibition): 0.21 µM |
| 238 to 240 °C |  |  |  | O=C(O)c1ccc2c(c1)CCc1cccnc1C2=C1CCN(C(=O)Cc2ccncc2)CC1 [Example 435] |  |  | IC50 ([1]; enzyme inhibition): 7 µM |
|  | 0.03 µM | > 38 | < 1.6 | O=C(Cc1cc[n+]([O-])cc1)N1CCC(C2c3ccc(Cl)cc3C=Cc3cc(Br)cnc32)CC1 (stereo not drawn) [Example 400-C] | 0.7 | > 25 | IC50 ([1]; enzyme inhibition): 0.03 µM |
| 134 to 136.1 °C |  |  |  | O=C(Cc1ccnc(Br)c1)N1CCC(=C2c3ccc(Cl)cc3CCc3cc(Br)cnc32)CC1 [Example 506] |  |  |  |
|  | 0.9 µM | > 46 | 12.5 | O=C(Nc1ccccc1)N1CCC(C2c3ccc(Cl)cc3CCc3cccnc32)CC1 (stereo not drawn) [Example 312] | 3.8 | > 50 |  |
|  | 0.99 µM | > 44 | 6.25 | O=C(Nc1cccnc1)N1CCC(=C2c3ccc(Cl)cc3CCc3cccnc32)CC1 [Example 292] | 6.8 | > 50 |  |
|  | 0.97 µM | > 46 | 6.25 | O=C(Nc1cccnc1)N1CCC(C2c3ccc(Cl)cc3CCc3cccnc32)CC1 (stereo not drawn) [Example 313] | 1.5 | > 50 |  |
|  | 0.87 µM | > 46 | 18 | O=C(Nc1ccncc1)N1CCC(=C2c3ccc(Cl)cc3CCc3cccnc32)CC1 [Example 291] | 3.6 | > 50 |  |
|  | 0.21 µM | 1000 |  | CN1CCCC(CC(=O)N2CCC(=C3c4ccc(Cl)cc4CCc4cc(Br)cnc43)CC2)C1 (stereo not drawn) [Example 400-K] | 2.2 |  | IC50 ([1]; enzyme inhibition): 0.21 µM; GGPT inhibition at the concentration in parentheses ([2]; (37) μM): 0 (37); Inhibition of Ras Processing at the concentration in parentheses ([3]; (5) μM): 100 (5) |
|  | 0.61 µM | 41.3 | 10 | O=C(Cc1ccncc1)N1CCC(=C2c3cc(Cl)c(Cl)cc3CCc3cccnc32)CC1 [Example 311] | 9.5 | > 50 |  |
|  | 0.024 µM | > 39 | 1.6 | O=C(Cc1ccncc1)N1CCC(C2c3ccc(Cl)cc3C=Cc3cc(Br)cnc32)CC1 (stereo not drawn) [Example 400-G] | 0.58 | > 25 | IC50 ([1]; enzyme inhibition): 0.024 µM |

Second part, the molecule before the results:

| Compound | melting point | IC50 [1, 6] | IC50 [2] [µM] | IC50 ([4]; Homo sapiens) [µM] | IC50 ([3]; Primates, COS) [µM] | IC50 ([5]; Homo sapiens, Fibroblast) [µM] | other results |
| --- | --- | --- | --- | --- | --- | --- | --- |
| O=C(Cc1ccc[n+]([O-])c1)N1CCC(=C2c3ccc(Cl)cc3CCc3ccc[n+]([O-])c32)CC1 [Example 231] | 105 to 107 °C |  |  |  |  |  | inhibition at 12 µM ([1]; at 12 μM): 44% |
| O=C1CCC(C(=O)N2CCC(=C3c4ccc(Cl)cc4CCc4cccnc43)CC2)=NN1 [Example 35] | 190 to 193 °C | 9.9 µM |  |  |  |  |  |
| CC(C)(C)OC(=O)NCCSc1ccnc2c1CCc1cc(Cl)ccc1C2=C1CCN(C(=O)Cc2cccnc2)CC1 [Example 260] | 59.8 to 63.5 °C | 9.9 µM |  |  |  |  |  |
| O=C(Cc1cc[n+]([O-])cc1)N1CCC(=C2c3ccc(Cl)cc3CCc3cccnc32)CC1 [227 (5.102)] |  |  | > 41 |  |  |  | IC50 [3]: 1 µM; IC50 [4]: 4 µM; IC50 [5]: > 50 µM |
| O=C(Cc1cccnc1)N1CCN(C2c3ccc(Cl)cc3CCc3cc(Br)cnc32)CC1 (stereo not drawn) [Example 351] |  | 0.17 µM | 1000 | 6.25 | 2.8 | 25 |  |
| O=C(Cc1cc[n+]([O-])cc1)N1CCC(=C2c3ccc(Cl)cc3CCc3cccnc32)CC1 [Example 227] | 128 to 130 °C |  |  |  |  |  |  |
| O=C(C(CO)c1ccccc1)N1CCC(=C2c3ccc(Cl)cc3CCc3cccnc32)CC1 (stereo not drawn) [Example 41, 8-chloro-1-[ -(2-hydroxy-1-phenylethylcarbonyl)-4-piperidylidene]-6,11-dihydro-5H-benzo[5,6]-cyclohepta-[1,2-b]pyridine] | 92.7 to 93 °C | 6.1 µM |  |  |  |  |  |
| O=C(Cc1cc[n+]([O-])cc1)N1CCC(C2c3ccc(Cl)cc3CCc3cccnc32)CC1 (stereo not drawn) [Example 234] |  | 0.33 µM | > 43 | 3.1 | 2.2 | > 50 |  |
| O=C(Cc1ccncc1)N1CCC(=C2c3ccc(Cl)cc3CCc3c(On4nnc5ccccc54)ccnc32)CC1 [Example 249] | 98.6 to 101.6 °C | 0.64 µM |  |  |  |  |  |
| O=C(C(=O)N1CCC(=C2c3ccc(Cl)cc3CCc3cccnc32)CC1)c1c[nH]c2ccccc12 [Example 219] | 192 to 193 °C | 6.64 µM |  |  |  |  |  |
| CN1C(=O)C(CCC(=O)N2CCC(=C3c4ccc(Cl)cc4CCc4cccnc43)CC2)NC1=S (stereo not drawn) [Example 23] | 205 to 207 °C | 6 µM |  |  |  |  |  |
| O=C(c1cc[n+]([O-])cc1)N1CCC(=C2c3ccc(Cl)cc3CCc3cccnc32)CC1 [Example 22] | 228 °C (dec.) | 6 µM |  |  |  |  |  |
| O=C(Cc1ccc(Br)cc1)N1CCN(C2c3ccc(Cl)cc3CCc3cccnc32)CC1 (stereo not drawn) [Example 77] |  |  | > 39 |  |  |  | IC50 [3]: 9.2 µM; IC50 [4]: > 50 µM; IC50 [5]: > 50 µM |
| Cc1cnc2c(c1)CCc1cc(Cl)ccc1C2=C1CCN(C(=O)Cc2cccnc2)CC1 [Example 303] |  | 0.55 µM | > 43 | 8 | 3.4 | > 50 |  |
| CO[C@](C(=O)N1CCC(=C2c3ccc(Cl)cc3CCc3cccnc32)CC1)(c1ccccc1)C(F)(F)F [Example 287] |  | 0.72 µM and 5.02 µM | > 40 |  | > 10 | > 50 |  |
